Source: PMC3944389, “Differential Neuroprotective Effects of 5′-Deoxy-5′-Methylthioadenosine” (PLoS ONE, 2014)

Experiments:
[1] = system: rat mixed cultures of neurons and astrocytes; test: Oxygen-glucose deprivation (OGD) with iodoacetate, LDH release; type: cell-based
Method: Finally, to prepare neuron-astrocyte co-cultures, neurons were resuspended in B27 Neurobasal medium plus 10% of foetal bovine serum (FBS) and then seeded onto a monolayer of astrocytes in 24-well plates at a density of 1–2×10^5 cells per well, the astrocytes having been prepared beforehand, as described elsewhere. One day later, the medium was replaced with B27-Neurobasal plus 10% FBS medium, and the cells were maintained at 37°C in 5% CO2. The cultures were used 8–9 days after plating. Neurons and astrocytes were identified with antibodies against microtubule-associated protein-2 and GFAP, respectively.
Ischemic damage was induced by incubating cell cultures for 1 h in a hyperbaric chamber in a nitrogen-saturated buffer containing: 130 mM NaCl, 5.4 mM KCl, 0.1323 mM CaCl2, 0.26 mM NaHCO3, 0.8 mM MgCl2, 1.18 mM NaH2PO4, 10 mM sucrose (OGD plus sucrose) and iodoacetate (IAA, 20 or 50 µM). IAA is a glycolytic blocker typically used in OGD experiments to simulate ischemic conditions. After the insult, the cells were incubated under normoxic conditions for an additional 24 h in the presence of glucose but in the absence of IAA. Distinct reagents were added during ischemia to evaluate their neuroprotective activity by assessing cell viability and cell death in the cultures.
The cell status was assessed by measuring the release of lactate dehydrogenase (LDH) from dead cells. LDH was measured spectrophotometrically at 490 nm on a 96-well plate reader using the Cytotox 96 Kit according to the manufacturer's instructions (Promega). The LDH release was defined by the ratio of LDH released to the total LDH present in the cell at the beginning of the treatment.

[2] = system: Wistar rats, global brain ischemia; test: Transient forebrain (global) ischemia (4VO), Fluoro-Jade C staining of CA1; type: in vivo, rat; conditions: 30 mg/kg i.p. from 30 min after onset of ischemia, 7 days reperfusion; untreated 180±10
Method: Male Wistar rats (270-300 g; Harlan) were subjected to transient focal ischemia for 90 min by producing right middle cerebral artery occlusion (MCAO) as described previously, followed by reperfusion for 3 days and MTA treatment (30 mg/kg, intraperitoneally –i.p.- twice daily) starting 30 min after the onset of ischemia (n = 5 in each experimental group). Cerebral blood flow was monitored transcranially with a laser Doppler flowmeter (Perimed) and the infarct volume was assessed by 2,3,5-triphenyltetrazolium chloride (TTC) staining. Transient forebrain ischemia was induced as described elsewhere, by occluding the vertebral and common carotid arteries (4VO) for 10 min, followed by reperfusion for 7 days and MTA treatment (as above) starting 30 min after the onset of ischemia (n = 5 in vehicle group; n = 6 in the […]). The effectiveness of the treatment was assessed by using fluoro-Jade C staining to measure the levels of degenerated neurons in the CA1 region of the hippocampal formation.
Fluoro-Jade C (Chemicon, Millipore) was used to visualize dying neurons in 10 µm frozen coronal sections pretreated for 15 min with 0.06% KMnO4. […] Cells were counted in the right and left hemispheres of each stained section, examining four sections from each experiment.

[3] = system: Sprague-Dawley rats, pilocarpine-induced status epilepticus; test: Pilocarpine-induced status epilepticus (SE) model; type: in vivo, rat
Method: Young adult (175–200 g) male Sprague-Dawley rats from Charles River (Wilmington, MA, US) were divided into four MTA treatment groups, with 9–11 rats per group. In group A, rats were subjected to pilocarpine-induced status epilepticus (SE) as described previously. Following 90 min of continuous seizure activity, SE was stopped by administering a single dose of diazepam (10 mg/kg). The rats were then injected daily for 3 days with either the vehicle alone (2% DMSO in H2O), injecting a volume of body weight x 3.3 (a similar volume as for the MTA treated groups), or MTA (30 mg/kg). Rats were euthanized on day 4 after SE under anesthesia by transcardiac perfusion with 4% paraformaldehyde (PFA) in phosphate-buffered saline. The brains were removed, postfixed in 4% PFA, cryoprotected in 30% sucrose, frozen, and sectioned for histology. In group B, the rats received the same treatment as those in group A (vehicle or MTA 30 mg/kg) except that the rats were perfused on day 30 after SE and a 0,37% sulphide fixative was used for subsequent Timm staining. In group C, the rats were only treated with MTA (30 mg/kg) or the vehicle for 2 days and on the third day, the rats were again subjected to pilocarpine-induced SE. The animals were then treated once daily with MTA (30 mg/kg) or vehicle for a further 3 days, and they were anesthetized and euthanized 4 days after SE. […]
Mouse and rat coronal sections were mounted on glass slides in a 0.2% solution of gelatin in 0.05 M Trizma base [pH 7.6] […] To evaluate sprouting of the zinc-containing mossy fibers in the dentate gyrus inner molecular layer, Timm-stained sections were analyzed by an examiner blinded to experimental condition. […] Twelve samples of pixel density/section were measured in the inner molecular layer using NIH ImageJ, 5 from the lower blade, 5 from the upper blade and 2 from the apex. The average background level (mean of 12 samples/section) was subtracted and a mean pixel density calculated for each animal (n = 4–5/group). […]

5′-deoxy-5′-methylthioadenosine [MTA]
protection against OGD (cell death, LDH release) ([1]; IAA 20 and 50 µM, MTA 10 µM or 100 µM, APV 100 µM): significant | protection against OGD (cell death, LDH release) ([1]; supramaximal dose of MTA, 1 mM): neither protective nor did it lead to greater damage than OGD itself | Fluoro Jade C stained cells in the hippocampal CA1 region [2]: 110±20 cells/mm | mossy fiber sprouting (Timm staining) ([3]; MTA 30 mg/kg pre-SE or post-SE, 30 days after SE): No difference | neurodegeneration and neuronal loss in hippocampal areas (NeuN immunoreactivity) ([3]; MTA 30 mg/kg/day before or after SE, early (3-5 days) and late (30 days) time points): reduced the neurodegeneration and neuronal loss | neuronal loss in the CA3 and CA1 hippocampal areas (stereological counting of NeuN-immunoreactive cells) ([3]; MTA 30 mg/kg/day prior to SE, 30 days after SE): significant reductions
